Values quoted from earlier work, collected in patent US20030056236A1, “Model” (priority 2001, published 2003).

Tested on: 5-HIAA levels
Settings: after treatment; for elevate 5-HIAA levels: rat medial prefrontal cortex; for effect on 5-HIAA levels in the striatum: rat striatum

SMILES | elevate 5-HIAA levels | effect on 5-HIAA levels in the striatum
Cc1nc2n(c(=O)c1CCN1CCC(c3noc4cc(F)ccc34)CC1)CCCC2 [Risperidone] | elevate | no effect
CCNC(=O)N1CCN(CCCC(c2ccc(F)cc2)c2ccc(F)cc2)CC1 [amperozide] | elevate | no effect
Cc1nc2sccn2c(=O)c1CCN1CCC(=C(c2ccc(F)cc2)c2ccc(F)cc2)CC1 [ritanserin] | to a lesser extent | no effect
